Patent publication US10138236B2, “Factor xia-inhibiting pyridobenzazepine and pyridobenzazocine derivatives” (BAYER PHARMA AKTIENGESELLSCHAFT, priority 2014, dated 2018)

Legend:
[1] = molecular target: human factor XIa (Homo sapiens (Human), UniProt P03951); assay: Measurement of FXIa inhibition; format: biochemical; details: factor XIa from Kordia, substrate Boc-Glu(OBzl)-Ala-Arg-AMC, fluorescence
Protocol: a.1) Measurement of FXIa Inhibition
(§1) The factor XIa inhibition of the substances according to the invention is determined using a biochemical test system which utilizes the reaction of a peptidic factor XIa substrate to determine the enzymatic activity of human factor XIa. Here, factor XIa cleaves from the peptic factor XIa substrate the C-terminal aminomethylcoumarin (AMC), the fluorescence of which is measured. The determinations are carried out in microtitre plates.
1 μl of the diluted substance solutions is placed into each of the wells of white microtitre plates from Greiner (384 wells). […] After 15 min of incubation, the enzyme reaction is started by addition of 20 μl of the factor XIa substrate Boc-Glu(OBzl)-Ala-Arg-AMC dissolved in assay buffer (10 μM in assay buffer) from Bachem, the mixture is incubated at room temperature (22° C.) for 30 min and fluorescence is then measured (excitation: 360 nm, emission: 460 nm). The measured emissions of the test batches with test substance are compared to those of control batches without test substance (only dimethyl sulphoxide instead of test substance in dimethyl sulphoxide), and IC50 values are calculated from the concentration/activity relationships.

[2] = molecular target: human plasma kallikrein (Homo sapiens (Human), UniProt P03952); assay: Determination of the plasma kallikrein activity; format: biochemical; details: plasma kallikrein from Kordia, substrate H-Pro-Phe-Arg-AMC, fluorescence
human plasma kallikrein, sequence (P03952 391-638): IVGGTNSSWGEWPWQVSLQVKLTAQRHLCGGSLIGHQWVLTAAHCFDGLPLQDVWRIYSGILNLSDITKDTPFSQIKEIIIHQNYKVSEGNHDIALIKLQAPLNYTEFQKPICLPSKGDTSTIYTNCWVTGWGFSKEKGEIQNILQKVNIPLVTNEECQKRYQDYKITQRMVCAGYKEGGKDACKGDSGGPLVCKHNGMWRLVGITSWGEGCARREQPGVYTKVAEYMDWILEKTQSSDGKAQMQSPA
human plasma kallikrein, sequence (P03952 20-390 partner): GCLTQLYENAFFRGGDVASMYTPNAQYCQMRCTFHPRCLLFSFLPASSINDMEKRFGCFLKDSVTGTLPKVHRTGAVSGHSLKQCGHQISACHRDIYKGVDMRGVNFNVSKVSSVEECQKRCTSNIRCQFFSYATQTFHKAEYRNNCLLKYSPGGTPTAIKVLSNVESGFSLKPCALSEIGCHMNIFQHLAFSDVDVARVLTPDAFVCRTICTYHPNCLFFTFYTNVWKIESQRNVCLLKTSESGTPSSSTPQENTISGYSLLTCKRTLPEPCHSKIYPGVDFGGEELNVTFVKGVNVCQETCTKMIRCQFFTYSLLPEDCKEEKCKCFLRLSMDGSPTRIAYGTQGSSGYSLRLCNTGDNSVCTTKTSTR
Protocol: a.5) Determination of the Plasma Kallikrein Activity
as §1, with “To determine the plasma kallikrein” for “The factor XIa”, “invention,” for “invention is determined using”, “system is used” for “system”, “plasma kallikrein” for “factor XIa”, “plasma kallikrein.” for “factor XIa.”
1 μl of the diluted substance solutions is placed into each of the wells of white microtitre plates from Greiner (384 wells). 20 μl of assay buffer (50 mM Tris/HCl pH 7.4; 100 mM sodium chloride solution; 5 mM of calcium chloride solution; 0.1% of bovine serum albumin) and 20 μl of plasma kallikrein from Kordia (0.6 nM in assay buffer) are then added successively. After 15 min of incubation, the enzyme reaction is started by addition of 20 μl of the substrate H-Pro-Phe-Arg-AMC dissolved in assay buffer (10 μM in assay buffer) from Bachem, the mixture is incubated at room temperature (22° C.) for 30 min and fluorescence is then measured (excitation: 360 nm, emission: 460 nm). The measured emissions of the test batches with test substance are compared to those of control batches without test substance (only dimethyl sulphoxide instead of test substance in dimethyl sulphoxide), and IC50 values are calculated from the concentration/activity relationships.

human factor XIa, sequence (P03951 388-625): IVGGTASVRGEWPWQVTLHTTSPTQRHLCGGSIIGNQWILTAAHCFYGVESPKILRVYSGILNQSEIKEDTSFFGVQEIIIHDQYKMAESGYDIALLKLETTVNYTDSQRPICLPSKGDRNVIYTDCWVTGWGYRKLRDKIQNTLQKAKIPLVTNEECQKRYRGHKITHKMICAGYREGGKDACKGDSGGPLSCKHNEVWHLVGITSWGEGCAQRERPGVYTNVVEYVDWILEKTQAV
human factor XIa, sequence (P03951 19-387 partner): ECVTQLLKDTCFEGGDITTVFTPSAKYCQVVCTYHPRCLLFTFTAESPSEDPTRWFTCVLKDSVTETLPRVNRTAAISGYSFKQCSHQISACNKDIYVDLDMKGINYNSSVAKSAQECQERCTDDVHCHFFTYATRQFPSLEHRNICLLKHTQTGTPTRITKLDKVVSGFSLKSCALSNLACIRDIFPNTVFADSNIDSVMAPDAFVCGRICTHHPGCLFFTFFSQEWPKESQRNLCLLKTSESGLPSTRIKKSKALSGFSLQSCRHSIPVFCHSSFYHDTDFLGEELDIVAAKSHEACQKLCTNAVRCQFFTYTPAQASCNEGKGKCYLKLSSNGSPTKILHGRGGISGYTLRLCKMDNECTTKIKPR

IC50 [1] | IC50 [2] | SMILES
420 nM | > 10000 nM | CCC(C(=O)Nc1ccc(C(=O)O)cc1)n1cc2c(cc1=O)-c1cc(Cl)ccc1CNC2=O (stereo not drawn) [Example 1, 4-{[2-(10-Chloro-2,5-dioxo-2,5,6,7-tetrahydro-3H-pyrido[3,4-d][2]benzazepin-3-yl)butanoyl]amino}benzoic acid]
280 nM | 4900 nM | CCC(C(=O)Nc1ccc(-c2noc(=O)[nH]2)cc1)n1cc2c(cc1=O)-c1cc(Cl)ccc1CNC2=O (stereo not drawn) [Example 2, 2-(10-Chloro-2,5-dioxo-2,5,6,7-tetrahydro-3H-pyrido[3,4-d][2]benzazepin-3-yl)-N-[4-(5-oxo-4,5-dihydro-1,2,4-oxadiazol-3-yl)phenyl]butanamide]
180 nM | > 50000 nM | CCC(C(=O)Nc1ccc(C(=O)O)cc1)n1cc2c(cc1=O)-c1cc(Cl)ccc1C1(CC1)NC2=O (stereo not drawn) [Example 3, 4-{[2-(10′-Chloro-2′,5′-dioxo-5′,6′-dihydrospiro[cyclopropane-1,7′-pyrido[3,4-d][2]benzazepine]-3′(2′H)-yl)butanoyl]amino}benzoic acid]
720 nM | 18000 nM | O=C(Cn1cc2c(cc1=O)-c1cc(Cl)ccc1CCNC2=O)Nc1ccc(C(=O)O)cc1 [Example 4, 4-{[(11-Chloro-2,5-dioxo-5,6,7,8-tetrahydropyrido[3,4-e][3]benzazocin-3(2H)-yl)acetyl]amino}benzoic acid]
350 nM | 8300 nM | O=C(Cn1cc2c(cc1=O)-c1cc(Cl)ccc1CCNC2=O)Nc1ccc(-c2noc(=O)[nH]2)cc1 [Example 5, 2-(11-Chloro-2,5-dioxo-5,6,7,8-tetrahydropyrido[3,4-e][3]benzazocin-3(2H)-yl)-N-[4-(5-oxo-4,5-dihydro-1,2,4-oxadiazol-3-yl)phenyl]acetamide]
28 nM | 1900 nM | CCC(C(=O)Nc1ccc(C(=O)O)cc1)n1cc2c(cc1=O)-c1cc(Cl)ccc1CCNC2=O (stereo not drawn) [Example 6, 4-{[2-(11-Chloro-2,5-dioxo-5,6,7,8-tetrahydropyrido[3,4-e][3]benzazocin-3(2H)-yl)butanoyl]amino}benzoic acid]
44 nM | 3300 nM | CCC(C(=O)Nc1ccc(-c2noc(=O)[nH]2)cc1)n1cc2c(cc1=O)-c1cc(Cl)ccc1CCNC2=O (stereo not drawn) [Example 7, 2-(11-Chloro-2,5-dioxo-5,6,7,8-tetrahydropyrido[3,4-e][3]benzazocin-3(2H)-yl)-N-[4-(5-oxo-4,5-dihydro-1,2,4-oxadiazol-3-yl)phenyl]butanamide]
36 nM | 680 nM | CC(C)CC(C(=O)Nc1ccc(C(=O)O)cc1)n1cc2c(cc1=O)-c1cc(Cl)ccc1CCNC2=O (stereo not drawn) [Example 8, 4-{[2-(11-Chloro-2,5-dioxo-5,6,7,8-tetrahydropyrido[3,4-e][3]benzazocin-3(2H)-yl)-4-methylpentanoyl]amino}benzoic acid]
140 nM | 3800 nM | CC(C)CC(C(=O)Nc1ccc(-c2noc(=O)[nH]2)cc1)n1cc2c(cc1=O)-c1cc(Cl)ccc1CCNC2=O (stereo not drawn) [Example 9, 2-(11-Chloro-2,5-dioxo-5,6,7,8-tetrahydropyrido[3,4-e][3]benzazocin-3(2H)-yl)-4-methyl-N-[4-(5-oxo-4,5-dihydro-1,2,4-oxadiazol-3-yl)phenyl]pentanamide]
7.7 nM | 2100 nM | CCC(C(=O)Nc1ccc(C(=O)O)cc1)n1cc2c(cc1=O)-c1cc(Cl)ccc1CC1(CC1)NC2=O (stereo not drawn) [Example 10, 4-{[2-(11′-Chloro-2′,5′-dioxo-2′,5′,6′,8′-tetrahydro-3′H-spiro[cyclopropane-1,7′-pyrido[3,4-e][3]benzazocine]-3′-yl)butanoyl]amino}benzoic acid]
16 nM | 1700 nM | CCC(C(=O)Nc1ccc(-c2noc(=O)[nH]2)cc1)n1cc2c(cc1=O)-c1cc(Cl)ccc1CC1(CC1)NC2=O (stereo not drawn) [Example 11, 2-(11′-Chloro-2′,5′-dioxo-2′,5′,6′,8′-tetrahydro-3′H-spiro[cyclopropane-1,7′-pyrido[3,4-e][3]benzazocine]-3′-yl)-N-[4-(5-oxo-4,5-dihydro-1,2,4-oxadiazol-3-yl)phenyl]butanamide]
1.9 nM | 390 nM | COCCC(C(=O)Nc1ccc(C(=O)O)cc1)n1cc2c(cc1=O)-c1cc(Cl)ccc1CC1(CC1)NC2=O (stereo not drawn) [Example 12, 4-{[2-(11′-Chloro-2′,5′-dioxo-2′,5′,6′,8′-tetrahydro-3′H-spiro[cyclopropane-1,7′-pyrido[3,4-e][3]benzazocine]-3′-yl)-4-methoxybutanoyl]amino}benzoic acid]
27 nM | 780 nM | COCCC(C(=O)Nc1ccc(C(N)=O)c(F)c1)n1cc2c(cc1=O)-c1cc(Cl)ccc1CC1(CC1)NC2=O (stereo not drawn) [Example 13, 4-{[2-(11′-Chloro-2′,5′-dioxo-2′,5′,6′,8′-tetrahydro-3′H-spiro[cyclopropane-1,7′-pyrido[3,4-e][3]benzazocine]-3′-yl)-4-methoxybutanoyl]amino}-2-fluorobenzamide]
18 nM | 230 nM | COCCC(C(=O)Nc1ccc2[nH]c(=O)[nH]c2c1)n1cc2c(cc1=O)-c1cc(Cl)ccc1CC1(CC1)NC2=O (stereo not drawn) [Example 14, 2-(11′-Chloro-2′,5′-dioxo-2′,5′,6′,8′-tetrahydro-3′H-spiro[cyclopropane-1,7′-pyrido[3,4-e][3]benzazocine]-3′-yl)-4-methoxy-N-(2-oxo-2,3-dihydro-1H-benzimidazol-5-yl)butanamide]
8.2 nM | 240 nM | COCCC(C(=O)Nc1ccc2nn(C)cc2c1)n1cc2c(cc1=O)-c1cc(Cl)ccc1CC1(CC1)NC2=O (stereo not drawn) [Example 15, 2-(11′-Chloro-2′,5′-dioxo-2′,5′,6′,8′-tetrahydro-3′H-spiro[cyclopropane-1,7′-pyrido[3,4-e][3]benzazocine]-3′-yl)-4-methoxy-N-(2-methyl-2H-indazol-5-yl)butanamide]
11 nM | 210 nM | COCCC(C(=O)Nc1ccn2nccc2c1)n1cc2c(cc1=O)-c1cc(Cl)ccc1CC1(CC1)NC2=O (stereo not drawn) [Example 16, 2-(11′-Chloro-2′,5′-dioxo-2′,5′,6′,8′-tetrahydro-3′H-spiro[cyclopropane-1,7′-pyrido[3,4-e][3]benzazocine]-3′-yl)-4-methoxy-N-(pyrazolo[1,5-a]pyridin-5-yl)butanamide]
44 nM | 1200 nM | COCCC(C(=O)Nc1ccc2nccn2c1)n1cc2c(cc1=O)-c1cc(Cl)ccc1CC1(CC1)NC2=O (stereo not drawn) [Example 17, 2-(11′-Chloro-2′,5′-dioxo-2′,5′,6′,8′-tetrahydro-3′H-spiro[cyclopropane-1,7′-pyrido[3,4-e][3]benzazocine]-3′-yl)-N-(imidazo[1,2-a]pyridin-6-yl)-4-methoxybutanamide]
21 nM | 330 nM | COCCC(C(=O)Nc1ccc2[nH]ncc2c1)n1cc2c(cc1=O)-c1cc(Cl)ccc1CC1(CC1)NC2=O (stereo not drawn) [Example 18, 2-(11′-Chloro-2′,5′-dioxo-2′,5′,6′,8′-tetrahydro-3′H-spiro[cyclopropane-1,7′-pyrido[3,4-e][3]benzazocine]-3′-yl)-N-(1H-indazol-5-yl)-4-methoxybutanamide]
8.4 nM | 230 nM | COCCC(C(=O)Nc1ccc2c(=O)n(C)[nH]c2c1)n1cc2c(cc1=O)-c1cc(Cl)ccc1CC1(CC1)NC2=O (stereo not drawn) [Example 19, 2-(11′-Chloro-2′,5′-dioxo-2′,5′,6′,8′-tetrahydro-3′H-spiro[cyclopropane-1,7′-pyrido[3,4-e][3]benzazocine]-3′-yl)-4-methoxy-N-(2-methyl-3-oxo-2,3-dihydro-1H-indazol-6-yl)butanamide]
47 nM | 4500 nM | COCCC(C(=O)Nc1ccc(C(=O)O)nc1)n1cc2c(cc1=O)-c1cc(Cl)ccc1CC1(CC1)NC2=O (stereo not drawn) [Example 20, 5-{[2-(11′-Chloro-2′,5′-dioxo-2′,5′,6′,8′-tetrahydro-3′H-spiro[cyclopropane-1,7′-pyrido[3,4-e][3]benzazocine]-3′-yl)-4-methoxybutanoyl]amino}pyridine-2-carboxylic acid]
34 nM | 910 nM | COCCC(C(=O)Nc1ccc(C(N)=O)nc1)n1cc2c(cc1=O)-c1cc(Cl)ccc1CC1(CC1)NC2=O (stereo not drawn) [Example 21, 5-{[2-(11′-Chloro-2′,5′-dioxo-2′,5′,6′,8′-tetrahydro-3′H-spiro[cyclopropane-1,7′-pyrido[3,4-e][3]benzazocine]-3′-yl)-4-methoxybutanoyl]amino}pyridine-2-carboxamide]
